Test results taken from paper PMC12748989 (Nature Communications, 2025).

Assays:
PBMC = conditions: 12.5 µM

In the case of `CC[C@H](C)[C@H](N)C(=O)N[C@@H](CC(N)=O)C(=O)N[C@@H](CC(C)C)C(=O)N[C@@H](CCCCN)C(=O)N[C@@H](C)C(=O)N[C@@H](CC(C)C)C(=O)N[C@@H](C)C(=O)N[C@@H](C)C(=O)N[C@@H](CC(C)C)C(=O)N[C@@H](C)C(=O)N[C@@H](CCCCN)C(=O)N[C@@H](CCCCN)C(=O)N[C@H](C(=O)N[C@@H](CC(N)=O)C(N)=O)[C@@H](C)CC` [N14], the “Average (percentage cell inhibition), Dmastoparan MDA-MB231 12.5uM” value (MDA-MB-231 cells) is reported as -1.851% and the “Average (percentage cell inhibition), Mastoparan PBMC” value (PBMC) is reported as 9.15%.

With `CC[C@H](C)[C@H](NC(=O)[C@H](CCCCN)NC(=O)[C@H](CCCCN)NC(=O)[C@H](C)NC(=O)[C@H](CC(C)C)NC(=O)[C@H](C)NC(=O)[C@H](C)NC(=O)[C@H](CC(C)C)NC(=O)[C@H](C)NC(=O)[C@H](CCCCN)NC(=O)[C@H](CC(C)C)NC(=O)[C@H](CC(N)=O)NC(=O)[C@@H]1CCCN1)C(=O)N[C@@H](CC(C)C)C(N)=O` [P1] the “Average (percentage cell inhibition), Dmastoparan MDA-MB231 12.5uM” value (MDA-MB-231 cells) was 43.0723% and the “Average (percentage cell inhibition), Mastoparan PBMC” value (PBMC) was -0.6303%.

With `CC[C@H](C)[C@H](N)C(=O)N1CCC[C@H]1C(=O)N[C@@H](CC(C)C)C(=O)N[C@@H](CCCCN)C(=O)N[C@@H](C)C(=O)N[C@@H](CC(C)C)C(=O)N[C@@H](C)C(=O)N[C@@H](C)C(=O)N[C@@H](CC(C)C)C(=O)N[C@@H](C)C(=O)N[C@@H](CCCCN)C(=O)N[C@@H](CCCCN)C(=O)N[C@H](C(=O)N[C@@H](CC(C)C)C(N)=O)[C@@H](C)CC` [P2] the “Average (percentage cell inhibition), Dmastoparan MDA-MB231 12.5uM” value (MDA-MB-231 cells) was 36.9174% and the “Average (percentage cell inhibition), Mastoparan PBMC” value (PBMC) was -4.49%.

`CC[C@H](C)[C@H](N)C(=O)N[C@@H](CC(N)=O)C(=O)N1CCC[C@H]1C(=O)N[C@@H](CCCCN)C(=O)N[C@@H](C)C(=O)N[C@@H](CC(C)C)C(=O)N[C@@H](C)C(=O)N[C@@H](C)C(=O)N[C@@H](CC(C)C)C(=O)N[C@@H](C)C(=O)N[C@@H](CCCCN)C(=O)N[C@@H](CCCCN)C(=O)N[C@H](C(=O)N[C@@H](CC(C)C)C(N)=O)[C@@H](C)CC` [P3] was tested, and the “Average (percentage cell inhibition), Dmastoparan MDA-MB231 12.5uM” value (MDA-MB-231 cells) was 17.7289% and the “Average (percentage cell inhibition), Mastoparan PBMC” value (PBMC) was -5.207%.

`CC[C@H](C)[C@H](N)C(=O)N[C@@H](CC(N)=O)C(=O)N[C@@H](CC(C)C)C(=O)N1CCC[C@H]1C(=O)N[C@@H](C)C(=O)N[C@@H](CC(C)C)C(=O)N[C@@H](C)C(=O)N[C@@H](C)C(=O)N[C@@H](CC(C)C)C(=O)N[C@@H](C)C(=O)N[C@@H](CCCCN)C(=O)N[C@@H](CCCCN)C(=O)N[C@H](C(=O)N[C@@H](CC(C)C)C(N)=O)[C@@H](C)CC` [P4] was tested, and the “Average (percentage cell inhibition), Dmastoparan MDA-MB231 12.5uM” value (MDA-MB-231 cells) was 10.9719% and the “Average (percentage cell inhibition), Mastoparan PBMC” value (PBMC) was -6.014%.

For `CC[C@H](C)[C@H](N)C(=O)N[C@@H](CC(N)=O)C(=O)N[C@@H](CC(C)C)C(=O)N[C@@H](CCCCN)C(=O)N1CCC[C@H]1C(=O)N[C@@H](CC(C)C)C(=O)N[C@@H](C)C(=O)N[C@@H](C)C(=O)N[C@@H](CC(C)C)C(=O)N[C@@H](C)C(=O)N[C@@H](CCCCN)C(=O)N[C@@H](CCCCN)C(=O)N[C@H](C(=O)N[C@@H](CC(C)C)C(N)=O)[C@@H](C)CC` [P5], the “Average (percentage cell inhibition), Dmastoparan MDA-MB231 12.5uM” value (MDA-MB-231 cells) was 25.1894% and the “Average (percentage cell inhibition), Mastoparan PBMC” value (PBMC) was 0.2776%.

For `CC[C@H](C)[C@H](N)C(=O)N[C@@H](CC(N)=O)C(=O)N[C@@H](CC(C)C)C(=O)N[C@@H](CCCCN)C(=O)N[C@@H](C)C(=O)N1CCC[C@H]1C(=O)N[C@@H](C)C(=O)N[C@@H](C)C(=O)N[C@@H](CC(C)C)C(=O)N[C@@H](C)C(=O)N[C@@H](CCCCN)C(=O)N[C@@H](CCCCN)C(=O)N[C@H](C(=O)N[C@@H](CC(C)C)C(N)=O)[C@@H](C)CC` [P6], the “Average (percentage cell inhibition), Dmastoparan MDA-MB231 12.5uM” value (MDA-MB-231 cells) was -16.4349% and the “Average (percentage cell inhibition), Mastoparan PBMC” value (PBMC) was -8.854%.

With `CC[C@H](C)[C@H](N)C(=O)N[C@@H](CC(N)=O)C(=O)N[C@@H](CC(C)C)C(=O)N[C@@H](CCCCN)C(=O)N[C@@H](C)C(=O)N[C@@H](CC(C)C)C(=O)N1CCC[C@H]1C(=O)N[C@@H](C)C(=O)N[C@@H](CC(C)C)C(=O)N[C@@H](C)C(=O)N[C@@H](CCCCN)C(=O)N[C@@H](CCCCN)C(=O)N[C@H](C(=O)N[C@@H](CC(C)C)C(N)=O)[C@@H](C)CC` [P7] the “Average (percentage cell inhibition), Dmastoparan MDA-MB231 12.5uM” value (MDA-MB-231 cells) was -0.6456% and the “Average (percentage cell inhibition), Mastoparan PBMC” value (PBMC) was -9.322%.

In the case of `CC[C@H](C)[C@H](N)C(=O)N[C@@H](CC(N)=O)C(=O)N[C@@H](CC(C)C)C(=O)N[C@@H](CCCCN)C(=O)N[C@@H](C)C(=O)N[C@@H](CC(C)C)C(=O)N[C@@H](C)C(=O)N1CCC[C@H]1C(=O)N[C@@H](CC(C)C)C(=O)N[C@@H](C)C(=O)N[C@@H](CCCCN)C(=O)N[C@@H](CCCCN)C(=O)N[C@H](C(=O)N[C@@H](CC(C)C)C(N)=O)[C@@H](C)CC` [P8], the “Average (percentage cell inhibition), Dmastoparan MDA-MB231 12.5uM” value (MDA-MB-231 cells) is reported as 8.428% and the “Average (percentage cell inhibition), Mastoparan PBMC” value (PBMC) is reported as -8.536%.

`CC[C@H](C)[C@H](N)C(=O)N[C@@H](CC(N)=O)C(=O)N[C@@H](CC(C)C)C(=O)N[C@@H](CCCCN)C(=O)N[C@@H](C)C(=O)N[C@@H](CC(C)C)C(=O)N[C@@H](C)C(=O)N[C@@H](C)C(=O)N1CCC[C@H]1C(=O)N[C@@H](C)C(=O)N[C@@H](CCCCN)C(=O)N[C@@H](CCCCN)C(=O)N[C@H](C(=O)N[C@@H](CC(C)C)C(N)=O)[C@@H](C)CC` [P9] was tested, and the “Average (percentage cell inhibition), Dmastoparan MDA-MB231 12.5uM” value (MDA-MB-231 cells) was 35.5446% and the “Average (percentage cell inhibition), Mastoparan PBMC” value (PBMC) was -6.87%.

With `CC[C@H](C)[C@H](N)C(=O)N[C@@H](CC(N)=O)C(=O)N[C@@H](CC(C)C)C(=O)N[C@@H](CCCCN)C(=O)N[C@@H](C)C(=O)N[C@@H](CC(C)C)C(=O)N[C@@H](C)C(=O)N[C@@H](C)C(=O)N[C@@H](CC(C)C)C(=O)N1CCC[C@H]1C(=O)N[C@@H](CCCCN)C(=O)N[C@@H](CCCCN)C(=O)N[C@H](C(=O)N[C@@H](CC(C)C)C(N)=O)[C@@H](C)CC` [P10] the “Average (percentage cell inhibition), Dmastoparan MDA-MB231 12.5uM” value (MDA-MB-231 cells) was 28.7019% and the “Average (percentage cell inhibition), Mastoparan PBMC” value (PBMC) was -7.837%.

With `CC[C@H](C)[C@H](N)C(=O)N[C@@H](CC(N)=O)C(=O)N[C@@H](CC(C)C)C(=O)N[C@@H](CCCCN)C(=O)N[C@@H](C)C(=O)N[C@@H](CC(C)C)C(=O)N[C@@H](C)C(=O)N[C@@H](C)C(=O)N[C@@H](CC(C)C)C(=O)N[C@@H](C)C(=O)N1CCC[C@H]1C(=O)N[C@@H](CCCCN)C(=O)N[C@H](C(=O)N[C@@H](CC(C)C)C(N)=O)[C@@H](C)CC` [P11] the “Average (percentage cell inhibition), Dmastoparan MDA-MB231 12.5uM” value (MDA-MB-231 cells) was -0.07814% and the “Average (percentage cell inhibition), Mastoparan PBMC” value (PBMC) was -9.695%.

For `CC[C@H](C)[C@H](N)C(=O)N[C@@H](CC(N)=O)C(=O)N[C@@H](CC(C)C)C(=O)N[C@@H](CCCCN)C(=O)N[C@@H](C)C(=O)N[C@@H](CC(C)C)C(=O)N[C@@H](C)C(=O)N[C@@H](C)C(=O)N[C@@H](CC(C)C)C(=O)N[C@@H](C)C(=O)N[C@@H](CCCCN)C(=O)N1CCC[C@H]1C(=O)N[C@H](C(=O)N[C@@H](CC(C)C)C(N)=O)[C@@H](C)CC` [P12], the “Average (percentage cell inhibition), Dmastoparan MDA-MB231 12.5uM” value (MDA-MB-231 cells) was -19.0406% and the “Average (percentage cell inhibition), Mastoparan PBMC” value (PBMC) was -2.814%.

For `CC[C@H](C)[C@H](N)C(=O)N[C@@H](CC(N)=O)C(=O)N[C@@H](CC(C)C)C(=O)N[C@@H](CCCCN)C(=O)N[C@@H](C)C(=O)N[C@@H](CC(C)C)C(=O)N[C@@H](C)C(=O)N[C@@H](C)C(=O)N[C@@H](CC(C)C)C(=O)N[C@@H](C)C(=O)N[C@@H](CCCCN)C(=O)N[C@@H](CCCCN)C(=O)N1CCC[C@H]1C(=O)N[C@@H](CC(C)C)C(N)=O` [P13], the “Average (percentage cell inhibition), Dmastoparan MDA-MB231 12.5uM” value (MDA-MB-231 cells) was -16.5854% and the “Average (percentage cell inhibition), Mastoparan PBMC” value (PBMC) was -11.6187%.
